Entries after “also recorded” stand apart in the source; their conditions may differ. Non-standard residues stand in square brackets, D forms with d. Residues, ends and D or L forms follow the SMILES beside them. *: point of attachment. Nle = CCCC[C@H](N)C(=O)O; Cbz = O=C(OCc1ccccc1)*
Assays:
Assay type in all cases: cell-based, human
[1] = system: HIF1α; assay: HIF1α degradation in MIO‐M1 cells under hypoxia (western blotting); settings: western blotting; for effect of co-treatment on HIF1α degradation triggered by TRAP1 inhibition: MIO‐M1 cells with gamitrinib or MitoQ, 6 h, hypoxia, BAPTA 10 µM, ALLN 10 µM
[2] = system: calpain‐1; assay: Calpain‐1 activation (autolysis, western blotting) in MIO‐M1 cells; settings: MIO‐M1 cells with 3 µM gamitrinib or 0.5 µM MitoQ, 6 h, hypoxia; BAPTA 10 µM, ALLN 10 µM
Procedure: (§1) Figure 5 TRAP1 inhibition induces mPTP opening, mitochondrial calcium discharge, and calpain‐1 activation. A) Visualization of cytoplasmic calcium. Fluo‐4 AM‐labeled MIO‐M1 cells were incubated with the TRAP1 inhibitors gamitrinib and MitoQ^[ [32], [41] ^] for 6 h or thapsigargin for 30 min under hypoxia, and analyzed by confocal microscopy. Scale bars, 10 µm and 2 µm (inset). […] MIO‐M1 cells were treated with a TRAP1 inhibitor, 3 µM gamitrinib or 0.5 µM MitoQ, for 6 h under hypoxia (n = 4). Enzyme activity was measured using a fluorogenic calpain substrate as described in the Experimental Section. C) Restored HIF1α expression upon CypD inhibition. MIO‐M1 cells were incubated with control or CypD‐targeting siRNAs, treated with the TRAP1 inhibitor MitoQ for 6 h under hypoxia, harvested, and analyzed by western blotting. Black and red arrows indicate pro and autolyzed forms of calpain‐1, respectively. […] MIO‐M1 cells were incubated with TRAP1‐targeting siRNAs for 48 h, exposed to hypoxia for 6 h, harvested, and analyzed by qPCR (n = 4). […] Cells were then analyzed by flow cytometry to detect cytoplasmic calcium. […] MIO‐M1 cells were incubated with TRAP1 inhibitors, 3 µM gamitrinib, and 0.5 µM MitoQ, and a cell‐permeable calcium chelator, BAPTA (10 µM), for 6 h as indicated under hypoxia and analyzed by western blotting. […] Data information: Data are expressed as mean ± SEM. […]

[3] = system: cytoplasmic Hsp90; assay: Cytoplasmic Hsp90 inhibition in MIO-M1 cells (western blotting); settings: 6 hr
Procedure: Cells and tissue samples were lysed using RIPA buffer (50 mM Tris, pH 8.0, 150 mM NaCl, 1% NP‐40, and 0.25% N‐deoxycholate) containing protease and phosphatase inhibitor cocktails (Roche). Lysates were separated by SDS‐PAGE and transferred to PVDF membranes. The membranes were blocked with 10% skim milk prepared in TBST (TBS (50 mM Tris and 150 mM NaCl, pH 7.6) containing 0.05% Tween‐20) for 1 h at RT and incubated with primary antibodies in antibody diluent solution (TBS containing 3 mM sodium azide and 0.1% BSA) overnight at 4 °C. After washing with TBST, the membranes were incubated with secondary antibodies for 1 h in 10% skim milk prepared in TBST. Finally, the membranes were washed three times with TBST, treated with ECL solution (Bio‐Rad; Hercules, CA, USA), and analyzed using a LAS4000 system (GE Healthcare; Chicago, IL, USA).
inhibitor) and gamitrinib as indicated for 6 hr, harvested, and analyzed by western blotting.
C) Cytoplasmic Hsp90 inhibition. MIO-M1
cells were incubated with DMAG (an Hsp90 inhibitor) as indicated for 6 hr under normoxia
or hypoxia and analyzed by western blotting.

[4] = system: MIO‐M1 cells; assay: Cytoplasmic calcium (Fluo‐4 AM) in MIO‐M1 cells; settings: Fluo‐4 AM‐labeled MIO‐M1 cells under hypoxia; MitoQ 6 h, thapsigargin 30 min
Procedure: as §1

[5] = system: calpain; assay: Calpain activity assay in MIO‐M1 cells; settings: 3 µM gamitrinib or 0.5 µM MitoQ, 6 h under hypoxia, fluorogenic calpain substrate, n = 4
Procedure: as §1

[6] = system: Trap1 KO MIO-M1 cells; assay: TRAP1 inhibitor effects in Trap1 KO MIO‐M1 cells
Procedure: MIO‐M1 Trap1 KO cell lines were generated using CRISPR/Cas9‐derived RNA‐guided endonucleases (Toolgen; Seoul, Republic of Korea). MIO‐M1 cells were co‐transfected with the Cas9 vector and TRAP1‐sgRNA expression vector (sgRNA sequence 1; 5′‐[…]‐3′ and sequence 2; 5′‐[…]‐3′) using jetPRIME transfection reagent (Polyplus; Illkirch‐Graffenstaden, France). Transfected cells were selected in culture medium containing […] puromycin (Sigma). Single‐cell colonies were collected using a cloning cylinder (I.D. × H 6.4 mm × 8 mm; Sigma) and analyzed using T7 endonuclease I to confirm Trap1 KO.
Supplementary Figure 16. Calpain-1 autolysis and HIF1α degradation in Trap1 […]
A) HIF1α degradation and calpain-1 autolysis in Trap1 knockout (KO) MIO-M1 cells. Trap1 KO MIO-M1 cells were generated as described in the Experimental Section and incubated in hypoxia for 6 hr, followed by analysis using western blotting. Under hypoxia, HIF1α degradation and autoproteolysis of calpain-1 were found in Trap1 KO MIO-M1 cells, when compared with wild type (WT) cells. […]
cell lines were established using MIO-M1 cells. WT and KO cells were incubated with MitoQ for 6 hr under hypoxia and analyzed by western blotting. Trap1 KO reduced the expression of […]
Quantification of the HIF1α protein level. HIF1α western blot density was analyzed and compared. Data are expressed as mean ± SEM from four independent experiments.
C) Cytoplasmic calcium concentration. WT and Trap1-KO MIO-M1 cells were labeled with […]
Fluo-4 AM, incubated with 3 μM gamitrinib or 1 μM MitoQ for 6 hr under hypoxia, collected, and analyzed by flow cytometry. Data information: Data are expressed as mean ± SEM.
Student t-test, ***P < 0.001; ns, not significant. […]

CCCC[C@@H](C=O)NC(=O)[C@H](CC(C)C)NC(=O)[C@H](CC(C)C)NC(C)=O [ALLN] (Ac-Leu-Leu-[Nle]-aldehyde)
effect of co-treatment on HIF1α degradation triggered by TRAP1 inhibition [1]: fully reversed
effect of co-treatment on calpain‐1 activation triggered by TRAP1 inhibition [2]: fully reversed

O=C(O)CN(CC(=O)O)c1ccccc1OCCOc1ccccc1N(CC(=O)O)CC(=O)O [BAPTA, 1,2‐bis (o‐aminophenoxy) ethane‐N, N, N', N'‐tetraacetic acid]
effect of co-treatment on HIF1α degradation triggered by TRAP1 inhibition [1]: fully reversed
effect of co-treatment on calpain‐1 activation triggered by TRAP1 inhibition [2]: fully reversed

CO[C@H]1/C=C\C=C(/C)C(=O)NC2=CC(=O)C(NCCN(C)C)=C(C[C@@H](C)C[C@H](OC)[C@H](O)[C@@H](C)/C=C(\C)[C@@H]1OC(N)=O)C2=O [DMAG, 17‐Dimethyl‐aminothylamino‐17‐demethoxy‐geldanamycin]
stability of HIF1α ([1]; MIO-M1 cells, 6 hr under normoxia or hypoxia): did not affect
stress response protein Hsp70 level [3]: upregulated

COC(=O)CNC(=O)C(=O)OC [DMOG, dimethyloxalylglycine]
effect of co-treatment on HIF1α degradation triggered by TRAP1 inhibition [1]: did not affect; also recorded: unaffected

CC(C)C[C@@H](C=O)NC(=O)[C@H](CC(C)C)NC(=O)[C@H](CC(C)C)NC(=O)OCc1ccccc1 [MG132] (Cbz-Leu-Leu-Leu-aldehyde)
effect of co-treatment on HIF1α degradation triggered by TRAP1 inhibition [1]: completely restored; also recorded: completely blocked

CC(=O)N[C@@H](CSC(=O)[C@]1([C@@H](O)C(C)C)NC(=O)[C@H](C)[C@@H]1O)C(=O)O [lactacystin]
effect of co-treatment on HIF1α degradation triggered by TRAP1 inhibition [1]: not effectively restored; also recorded: did not

O=C(O)CCC(=O)O [succinate]
effect of co-treatment on HIF1α degradation triggered by TRAP1 inhibition [1]: did not affect; also recorded: unaffected

C/C=C(/C)C(=O)O[C@H]1C(C)=C2[C@H]([C@@H]1OC(=O)CCCCCCC)[C@@](C)(OC(C)=O)C[C@H](OC(=O)CCC)[C@@]1(O)[C@H]2OC(=O)[C@@]1(C)O [thapsigargin]
cytoplasmic calcium [4]: substantial calcium release

gamitrinib
calpain enzyme activity [5]: Calpain activation
cytosolic calcium concentration in Trap1−/− cells ([6]; 3 μM gamitrinib or 1 μM MitoQ, 6 hr under hypoxia, Fluo-4 AM flow cytometry): did not affect
HIF1α expression in Trap1−/− cells ([6]; 6 hr under hypoxia, western blotting): did not affect
calpain‐1 activation in Trap1−/− cells ([6]; hypoxia): did not affect

From article PMC10787068, “Targeting the Mitochondrial Chaperone TRAP1 Alleviates Vascular Pathologies in Ischemic Retinopathy” (Advanced Science, 2023)
